Measured values published in the NIST ThermoML archive (doi:10.1021/je800110r).
Numbers after ± are expanded uncertainties.

Conditions: 303.16 K, Liquid, Vibrating tube method

In the case of `CCCCCCCCCC` [decane], the mass density (17693 kPa) is reported as 735.8 ± 2 kg/m3, the mass density (17724 kPa) is reported as 735.9 ± 2 kg/m3 and the mass density (17745 kPa) is reported as 735.8 ± 2 kg/m3. The mass density (17773 kPa) was 735.9 ± 2 kg/m3, the mass density (17801 kPa) was 735.9 ± 2 kg/m3 and the mass density (17825 kPa) was 735.9 ± 2 kg/m3. For the same compound, the mass density (17850 kPa) was 735.9 ± 2 kg/m3, the mass density (17878 kPa) was 735.9 ± 2 kg/m3 and the mass density (17909 kPa) was 736 ± 2 kg/m3. The mass density (17931 kPa) was 735.9 ± 2 kg/m3, the mass density (17959 kPa) was 736 ± 2 kg/m3 and the mass density (17977 kPa) was 736.1 ± 2 kg/m3. The mass density (18013 kPa) was 736 ± 2 kg/m3, the mass density (18041 kPa) was 736.1 ± 2 kg/m3 and the mass density (18063 kPa) was 736.1 ± 2 kg/m3. For the same compound, the mass density (18092 kPa) was 736.1 ± 2 kg/m3, the mass density (18122 kPa) was 736 ± 2 kg/m3 and the mass density (18144 kPa) was 736.1 ± 2 kg/m3. For the same compound, the mass density (18169 kPa) was 736.2 ± 2 kg/m3, the mass density (18195 kPa) was 736.2 ± 2 kg/m3 and the mass density (18227 kPa) was 736.2 ± 2 kg/m3. The mass density (18253 kPa) was 736.1 ± 2 kg/m3, the mass density (18275 kPa) was 736.3 ± 2 kg/m3 and the mass density (18304 kPa) was 736.2 ± 2 kg/m3. The mass density (18334 kPa) was 736.3 ± 2 kg/m3, the mass density (18356 kPa) was 736.2 ± 2 kg/m3 and the mass density (18390 kPa) was 736.2 ± 2 kg/m3. It also gave a mass density (18413 kPa) of 736.4 ± 2 kg/m3, a mass density (18436 kPa) of 736.4 ± 2 kg/m3 and a mass density (18466 kPa) of 736.3 ± 2 kg/m3. The mass density (18489 kPa) was 736.3 ± 2 kg/m3, the mass density (18523 kPa) was 736.4 ± 2 kg/m3 and the mass density (18546 kPa) was 736.4 ± 2 kg/m3. The mass density (18569 kPa) was 736.4 ± 2 kg/m3, the mass density (18595 kPa) was 736.4 ± 2 kg/m3 and the mass density (18614 kPa) was 736.5 ± 2 kg/m3. It also gave a mass density (18641 kPa) of 736.5 ± 2 kg/m3, a mass density (18664 kPa) of 736.5 ± 2 kg/m3 and a mass density (18699 kPa) of 736.5 ± 2 kg/m3. For the same compound, the mass density (18738 kPa) was 736.5 ± 2 kg/m3, the mass density (18762 kPa) was 736.5 ± 2 kg/m3 and the mass density (18789 kPa) was 736.5 ± 2 kg/m3. For the same compound, the mass density (18820 kPa) was 736.6 ± 2 kg/m3, the mass density (18843 kPa) was 736.6 ± 2 kg/m3 and the mass density (18883 kPa) was 736.7 ± 2 kg/m3. The mass density (18914 kPa) was 736.5 ± 2 kg/m3, the mass density (18938 kPa) was 736.8 ± 2 kg/m3 and the mass density (18962 kPa) was 736.7 ± 2 kg/m3. For the same compound, the mass density (18998 kPa) was 736.7 ± 2 kg/m3, the mass density (19031 kPa) was 736.7 ± 2 kg/m3 and the mass density (19060 kPa) was 736.7 ± 2 kg/m3. It also gave a mass density (19085 kPa) of 736.7 ± 2 kg/m3, a mass density (19122 kPa) of 736.9 ± 2 kg/m3 and a mass density (19159 kPa) of 736.8 ± 2 kg/m3. It also gave a mass density (19184 kPa) of 736.8 ± 2 kg/m3, a mass density (19223 kPa) of 736.9 ± 2 kg/m3 and a mass density (19247 kPa) of 736.9 ± 2 kg/m3. The mass density (19269 kPa) was 736.8 ± 2 kg/m3, the mass density (19302 kPa) was 736.9 ± 2 kg/m3 and the mass density (19335 kPa) was 737 ± 2 kg/m3. For the same compound, the mass density (19360 kPa) was 737 ± 2 kg/m3, the mass density (19383 kPa) was 737 ± 2 kg/m3 and the mass density (19412 kPa) was 737 ± 2 kg/m3. For the same compound, the mass density (19434 kPa) was 737 ± 2 kg/m3, the mass density (19456 kPa) was 737 ± 2 kg/m3 and the mass density (19477 kPa) was 736.9 ± 2 kg/m3. It also gave a mass density (19498 kPa) of 737.1 ± 2 kg/m3, a mass density (19522 kPa) of 737.1 ± 2 kg/m3 and a mass density (19544 kPa) of 737.2 ± 2 kg/m3. It also gave a mass density (19566 kPa) of 737.2 ± 2 kg/m3, a mass density (19587 kPa) of 737.1 ± 2 kg/m3 and a mass density (19612 kPa) of 737 ± 2 kg/m3. The mass density (19634 kPa) was 737.2 ± 2 kg/m3, the mass density (19656 kPa) was 737.1 ± 2 kg/m3 and the mass density (19678 kPa) was 737.2 ± 2 kg/m3. The mass density (19703 kPa) was 737.3 ± 2 kg/m3, the mass density (19725 kPa) was 737.3 ± 2 kg/m3 and the mass density (19748 kPa) was 737.3 ± 2 kg/m3. The mass density (19771 kPa) was 737.2 ± 2 kg/m3, the mass density (19794 kPa) was 737.2 ± 2 kg/m3 and the mass density (19817 kPa) was 737.2 ± 2 kg/m3. The mass density (19841 kPa) was 737.2 ± 2 kg/m3, the mass density (19862 kPa) was 737.2 ± 2 kg/m3 and the mass density (19880 kPa) was 737.3 ± 2 kg/m3. It also gave a mass density (19906 kPa) of 737.3 ± 2 kg/m3, a mass density (19925 kPa) of 737.4 ± 2 kg/m3 and a mass density (19938 kPa) of 737.4 ± 2 kg/m3. It also gave a mass density (19956 kPa) of 737.4 ± 2 kg/m3, a mass density (19976 kPa) of 737.4 ± 2 kg/m3 and a mass density (19997 kPa) of 737.4 ± 2 kg/m3. For the same compound, the mass density (20013 kPa) was 737.5 ± 2 kg/m3, the mass density (20034 kPa) was 737.3 ± 2 kg/m3 and the mass density (20052 kPa) was 737.5 ± 2 kg/m3. It also gave a mass density (20073 kPa) of 737.5 ± 2 kg/m3, a mass density (20089 kPa) of 737.5 ± 2 kg/m3 and a mass density (20104 kPa) of 737.4 ± 2 kg/m3. It also gave a mass density (20123 kPa) of 737.5 ± 2 kg/m3, a mass density (20143 kPa) of 737.6 ± 2 kg/m3 and a mass density (20164 kPa) of 737.5 ± 2 kg/m3. The mass density (20180 kPa) was 737.6 ± 2 kg/m3, the mass density (20201 kPa) was 737.5 ± 2 kg/m3 and the mass density (20222 kPa) was 737.6 ± 2 kg/m3. For the same compound, the mass density (20238 kPa) was 737.6 ± 2 kg/m3, the mass density (20259 kPa) was 737.6 ± 2 kg/m3 and the mass density (20280 kPa) was 737.6 ± 2 kg/m3. The mass density (20293 kPa) was 737.7 ± 2 kg/m3, the mass density (20307 kPa) was 737.6 ± 2 kg/m3 and the mass density (20323 kPa) was 737.7 ± 2 kg/m3. For the same compound, the mass density (20347 kPa) was 737.7 ± 2 kg/m3, the mass density (20369 kPa) was 737.7 ± 2 kg/m3 and the mass density (20396 kPa) was 737.7 ± 2 kg/m3. For the same compound, the mass density (20420 kPa) was 737.6 ± 2 kg/m3, the mass density (20439 kPa) was 737.7 ± 2 kg/m3 and the mass density (20461 kPa) was 737.7 ± 2 kg/m3. The mass density (20477 kPa) was 737.6 ± 2 kg/m3, the mass density (20501 kPa) was 737.8 ± 2 kg/m3 and the mass density (20529 kPa) was 737.7 ± 2 kg/m3. For the same compound, the mass density (20545 kPa) was 737.7 ± 2 kg/m3, the mass density (20567 kPa) was 737.8 ± 2 kg/m3 and the mass density (20586 kPa) was 737.9 ± 2 kg/m3. It also gave a mass density (20606 kPa) of 737.8 ± 2 kg/m3, a mass density (20625 kPa) of 737.8 ± 2 kg/m3 and a mass density (20650 kPa) of 737.9 ± 2 kg/m3. The mass density (20667 kPa) was 737.9 ± 2 kg/m3, the mass density (20683 kPa) was 737.9 ± 2 kg/m3 and the mass density (20706 kPa) was 738 ± 2 kg/m3. For the same compound, the mass density (20728 kPa) was 737.9 ± 2 kg/m3, the mass density (20745 kPa) was 738 ± 2 kg/m3 and the mass density (20764 kPa) was 738 ± 2 kg/m3. The mass density (20787 kPa) was 738.1 ± 2 kg/m3, the mass density (20810 kPa) was 738 ± 2 kg/m3 and the mass density (20827 kPa) was 738 ± 2 kg/m3. For the same compound, the mass density (20846 kPa) was 738 ± 2 kg/m3, the mass density (20863 kPa) was 738 ± 2 kg/m3 and the mass density (20880 kPa) was 738 ± 2 kg/m3. It also gave a mass density (20897 kPa) of 738 ± 2 kg/m3 and a mass density (20911 kPa) of 738.1 ± 2 kg/m3.
